# In patent publication US20170029355A1, “LABILE ESTERS OF AGROCHEMICALS FOR CONTROLLED RELEASE AND REDUCTION OF OFF-SITE MOVEMENT” (Monsanto Technology LLC, priority 2011, published 2017):
# Assays:
# velvetleaf [1] = assay: Greenhouse post-emergent control of velvetleaf by emulsifiable concentrates (Example 37); assay type: in vivo; conditions: Abutilon theophrasti, post-emergence, 504 h, greenhouse, Example 37
# Method: (§1) The efficacy of some photo-labile ester formulations from Example 28 for post-emergent control of velvetleaf was tested in the greenhouse. All formulations were tested at rates of 140, 280, 420, and 560 g dicamba equivalent per hectare rates and compared to the diglycolamine salt of dicamba (CLARITY®) at the same rates and untreated control plants. The velvetleaf plants were 10-15 cm in height at the time of spraying. Percent control was evaluated three weeks after treatment.
# The methodology of Example 29 was used to evaluate the efficacy of several esters of dicamba which convert to dicamba by hydrolysis for post-emergent control of velvetleaf as emulsifiable concentrate formulations.
# [2] = In vitro photo-release and hydrolytic release of dicamba in an aqueous medium (Example 36); assay type: physicochemical; conditions: 0.01 mM (0.005 mM for diesters)
# Method: This Example describes the determination of photo-lability and hydrolytic lability of dicamba esters in an aqueous medium. 1 mM solutions of the esters were prepared in acetonitrile (or […] solutions of dicamba diesters). The solutions were then diluted with deionized water to a concentration of 0.01 mM (or 0.005 mM for diesters). The solutions were then transferred to quartz tubes and amber bottles and held in a growth chamber by the procedure of Example 26. A 14-hour day was generally used at a constant temperature of 35° C. Hydrolytic activity was assessed by measuring the increase in dicamba concentration after day zero in the amber (dark) bottles. […] Photolysis manifested itself as increased conversion in the quartz tubes compared to the dark control.
# This Example provides the results of an aqueous lability test following the protocol of Example 35 for several dicamba esters which convert to dicamba primarily by hydrolysis. As shown by the results in the table below, conversion of the dark controls generally equaled or exceeded conversion in the photolysis solutions.
# Euphorbia species = assay: Field testing for post-emergent activity in the Southern Hemisphere (Example 39); assay type: in vivo; conditions: 9 as suspension concentrate, other esters as emulsifiable concentrates; for % control, 0.25 lb/ac (0.28 kg/hectare): 0.25 lb dicamba a.e. per acre; for % control, 0.50 lb/ac (0.56 kg/hectare): 0.50 lb dicamba a.e. per acre
# Method: The primary weeds were Euphorbia species. Ester 9 was tested as a suspension concentrate using the formulation of Example 33 The other esters were tested as emulsifiable concentrates having the formulations shown in the table below. Akzo Nobel SPONTO EC 334 and SPONTO EC 336 along with SURFONIC CO-54 and […] (Huntsman) were used as emulsifiers and Aromatic 200 (A 200; Exxon) was used as the solvent. […] The diglycolamine salt of dicamba (CLARITYTM) was used as a comparator.
# [3] = Photolysis / cleavage of the esters to dicamba (statements of the description); assay type: physicochemical; conditions: qualitative
# Text: The efficacy of the photolabile esters can be assayed in vitro, or in greenhouse or field experiments. A useful in vitro assay for post-emergent activity involves photolysis of a dilute solution of the esters using simulated sunlight. This is conveniently achieved by photolysis of a solution of the ester in an organic solvent which is miscible with water and to which some water has been added. As described in the Examples, photolysis in acetonitrile or tetrahydrofuran containing 10% water by weight is effective. Low concentrations of the ester should be used so that the entire volume is exposed to sunlight. Since the maximum extinction coefficient of the typical esters above 220 nm is in the range of 1000-10,000 M^−1 cm^−1, a concentration of 0.1 mM is effective. Photolysis in a quartz tube exposed to simulated or actual sunlight is a typical protocol.
# broadleaf weeds = assay: Control of broadleaf weeds by ester concentrates (statements of the description); assay type: in vivo; conditions: emulsifiable and suspension concentrates; Sesbania macrocarpa, morning glory, velvetleaf, Palmer amaranth, fat hen, sicklepod
# [4] = In vitro dicamba photo-release from photo-labile dicamba esters, acetonitrile/10% water solvent (Example 27); assay type: physicochemical; conditions: acetonitrile containing 10% water
# Method: (§2) This Example describes in vitro testing of dicamba photo-release by homogeneous solutions of photo-labile dicamba esters. The esters were dissolved in tetrahydrofuran (THF). Ester concentration was 0.1 mM. 25 ml of the solution was transferred to 22 mm tubes fabricated from graded seal quartz tubing with a 19/22 tapered seal at the top, which was closed with a tapered glass plug and secured with a plastic ring clamp. The solution was entirely below the quartz-to-glass transition, ensuring that the entire volume was exposed to the full spectrum.
# (§3) The sealed tubes were placed in a Growth Chamber where they were exposed to simulated sunlight for 14 hours per day at 35° C. Dicamba concentrations in the solution were measured during the course of the photolysis.
# (§4) A sample of the initial solution was reserved in a glass vial away from the light source and analyzed at the conclusion of the study, providing a measurement of the amount of dicamba present without illumination of the photolysis solution (the “dark control”).
# This Example is another photolysis of photo-labile dicamba esters, but using acetonitrile containing 10% water by weight as the solvent. The experimental protocol is otherwise the same as in Example 18.
# [5] = Solubility of the esters (statements of the description); assay type: physicochemical; conditions: qualitative
# hemp sesbania = assay: Field testing of emulsifiable concentrates, post-emergent control (Example 38); assay type: in vivo
# Text: (§5) Four dicamba esters, 1a, 2, 9, and 13a, were formulated as emulsifiable concentrates for field testing. All formulations contained 5% each of a alkylbenzene sulfonate calcium salt (Huntsman NANSA EVM 62/H or Akzo Nobel WITCONATE P-1220 EH) and castor oil ethoxylate (Huntsman SURFONIC CO-54) as the emulsifiers and Aromatic 200 (Exxon) or monochlorobenzene (MCB) as the solvent.
# (§6) The esters were compared to the diglycolamine salt of dicamba (CLARITY™) for post-emergent control of three broadleaf weeds: velvetleaf, morning glory, and hemp sesbania. Rates of 280 and 420 g dicamba acid equivalent per hectare were used. […] Evaluations were conducted at 11 or 21 days after treatment. Locations and timing were identical for all formulations tested.
# velvetleaf [6] = assay: as above; assay type: in vivo
# Text: as §5, §6
# morning glory = assay: as above; assay type: in vivo
# Text: as §5, §6
# [7] = In vitro dicamba photo-release from photo-labile dicamba esters, tetrahydrofuran solvent (Example 26); assay type: physicochemical
# Method: as §2, §3, §4
# velvetleaf [8] = assay: Greenhouse post-emergent control of velvetleaf by emulsifiable concentrates (Example 29); assay type: in vivo; conditions: three weeks after treatment
# Method: as §1
# [9] = 280 and 420 g dicamba acid equivalent per hectare
# [10] = 280 g dicamba acid equivalent per hectare, 11 or 21 days after treatment
# [11] = 420 g dicamba acid equivalent per hectare, 11 or 21 days after treatment
smiles,measurement,setting,value
"COc1c(Cl)ccc(Cl)c1C(=O)Oc1ccccn1 [Ester 14, 2-Hydroxypyridine Ester of Dicamba]",pest or weed control at 140 g/ha,"velvetleaf [1]; 140 g/ha, read-out: % Control of velvetleaf, 140 g/ha",40%
same,pest or weed control at 280 g/ha,"velvetleaf [1]; 280 g/ha, read-out: % Control of velvetleaf, 280 g/ha",58.3%
same,pest or weed control at 420 g/ha,"velvetleaf [1]; 420 g/ha, read-out: % Control of velvetleaf, 420 g/ha",80.8%
same,pest or weed control at 560 g/ha,"velvetleaf [1]; 560 g/ha, read-out: % Control of velvetleaf, 560 g/ha",85%
same,"Conversion to Dicamba, Dark, Day 0","[2]; amber (dark) bottle, Day 0",2%
same,"Conversion to Dicamba, Dark, Day 1","[2]; amber (dark) bottle, Day 1",68%
same,"Conversion to Dicamba, Dark, Day 2","[2]; amber (dark) bottle, Day 2",81%
same,"Conversion to Dicamba, Dark, Day 3","[2]; amber (dark) bottle, Day 3",84%
same,"Conversion to Dicamba, Dark, Day 4","[2]; amber (dark) bottle, Day 4",86%
same,"Conversion to Dicamba, Dark, Day 7","[2]; amber (dark) bottle, Day 7",92%
same,"Conversion to Dicamba, Dark, Day 14","[2]; amber (dark) bottle, Day 14",90%
same,"Conversion to Dicamba, Dark, Day 21","[2]; amber (dark) bottle, Day 21",91%
same,"Conversion to Dicamba, Dark, Day 28","[2]; amber (dark) bottle, Day 28",97%
same,"Conversion to Dicamba, Light, Day 0","[2]; quartz tube, Day 0",2%
same,"Conversion to Dicamba, Light, Day 1","[2]; quartz tube, Day 1",61%
same,"Conversion to Dicamba, Light, Day 2","[2]; quartz tube, Day 2",63%
same,"Conversion to Dicamba, Light, Day 3","[2]; quartz tube, Day 3",64%
same,"Conversion to Dicamba, Light, Day 4","[2]; quartz tube, Day 4",68%
same,"Conversion to Dicamba, Light, Day 7","[2]; quartz tube, Day 7",67%
same,"Conversion to Dicamba, Light, Day 14","[2]; quartz tube, Day 14",71%
same,"Conversion to Dicamba, Light, Day 21","[2]; quartz tube, Day 21",71%
same,"Conversion to Dicamba, Light, Day 28","[2]; quartz tube, Day 28",75%
same,"% control, 0.25 lb/ac (0.28 kg/hectare)",Euphorbia species,47%
same,"% control, 0.50 lb/ac (0.56 kg/hectare)",Euphorbia species,56%
same,"cleavage to form dicamba, in words",[3],undergoes efficient cleavage to form dicamba
same,"control of a number of broadleaf weeds in field testing, in words",broadleaf weeds,proven effective
same,Dark Control % dicamba,[4]; no illumination,0%
same,"Conversion to dicamba, 1 day","[4]; simulated sunlight, 1 day",6%
same,"Conversion to dicamba, 2 days","[4]; simulated sunlight, 2 days",9%
same,"Conversion to dicamba, 3 days","[4]; simulated sunlight, 3 days",10%
same,"Conversion to dicamba, 5 days","[4]; simulated sunlight, 5 days",12%
same,"Conversion to dicamba, 7 days","[4]; simulated sunlight, 7 days",12%
same,"Conversion to dicamba, 11 days","[4]; simulated sunlight, 11 days",19%
same,"Conversion to dicamba, 13 days","[4]; simulated sunlight, 13 days",21%
same,"Conversion to dicamba, 15 days","[4]; simulated sunlight, 15 days",25%
same,"Conversion to dicamba, 19 days","[4]; simulated sunlight, 19 days",26%
same,"solubility, in words",[5],readily soluble in organic solvents
"COc1ccc(C(=O)COC(=O)c2c(Cl)ccc(Cl)c2OC)cc1 [Ester 9, 4-methoxyphenacyl methyl ester of dicamba]","post-emergent control of hemp sesbania compared with the dicamba salt, in words",hemp sesbania; [9],equivalent to the dicamba salt
same,"% control, 280 g/ha, Hemp sesbania",hemp sesbania; [10],86%
same,"% control, 420 g/ha, Hemp sesbania",hemp sesbania; [11],93%
same,"post-emergent control of velvetleaf compared with the dicamba salt, in words",velvetleaf [6]; [9],nearly equivalent to the dicamba salt
same,"% control, 280 g/ha, Velvetleaf",velvetleaf [6]; [10],79%
same,"% control, 420 g/ha, Velvetleaf",velvetleaf [6]; [11],80%
same,"post-emergent control of morning glory compared with the dicamba salt, in words",morning glory; [9],equivalent to the dicamba salt
same,"% control, 280 g/ha, Morning glory",morning glory; [10],98%
same,"% control, 420 g/ha, Morning glory",morning glory; [11],100%
same,Dark Control % dicamba,"[7]; THF, 0.1 mM ester, initial solution kept away from the light source, analyzed at conclusion of study",1%
same,"Conversion to dicamba, 1 day","[7]; THF, 0.1 mM ester, simulated sunlight 14 hours per day, 35° C., 1 day",76%
same,"Conversion to dicamba, 2 days","[7]; THF, 0.1 mM ester, simulated sunlight 14 hours per day, 35° C., 2 days",91%
same,"Conversion to dicamba, 3 days","[7]; THF, 0.1 mM ester, simulated sunlight 14 hours per day, 35° C., 3 days",90%
same,"Conversion to dicamba, 5 days","[7]; THF, 0.1 mM ester, simulated sunlight 14 hours per day, 35° C., 5 days",89%
same,"Conversion to dicamba, 7 days","[7]; THF, 0.1 mM ester, simulated sunlight 14 hours per day, 35° C., 7 days",89%
same,photo-efficiency of dicamba generation,[7]; in vitro studies,~100%
same,"% control, 0.25 lb/ac (0.28 kg/hectare)",Euphorbia species,54%
same,"% control, 0.50 lb/ac (0.56 kg/hectare)",Euphorbia species,62%
same,"photolysis / photo-release of dicamba, in words",[3],efficient photo-release of 9 in a suspension concentrate formulation occurs over several weeks
same,"control of a number of broadleaf weeds in field testing, in words",broadleaf weeds,proven effective
same,"% Control of velvetleaf, 140 g/ha",velvetleaf [8]; 140 g dicamba equivalent per hectare,23%
same,"% Control of velvetleaf, 280 g/ha",velvetleaf [8]; 280 g dicamba equivalent per hectare,19%
same,"% Control of velvetleaf, 420 g/ha",velvetleaf [8]; 420 g dicamba equivalent per hectare,28%
same,"% Control of velvetleaf, 560 g/ha",velvetleaf [8]; 560 g dicamba equivalent per hectare,29%
same,"solubility, in words",[5],relatively insoluble
